Experimental findings from patent US20100267792A1, “Topical Compositions Containing Desthiobiotin and its Derivatives and a Method of Treating Skin” (AVON PRODUCTS, INC., priority 2007, published 2010) are described below.

Structures are written as SMILES.

Assay [1] deals with LOXL1 regulatory elements (promoter region of the LOXL1 gene). Description: LOXL1 promoter luciferase-reporter assay. The class given is cell-based. As to conditions: 0.001% DL-Desthiobiotin, 24 h, human fibrosarcoma line HTI080, LOXL1/pGL3 vector, triplicate tests, p<0.05 compared to vehicle control. The text has this:
Vector construction, transfection and expression: The promoter region of the LOXL1 gene was isolated and cloned into the pGL3 Luciferase reporter plasmid (Promega) by standard methods known in the art and according to manufacturer's instructions. The LOXL1/pGL3 vector and the control vector pRL-NULL (Promega), containing no regulatory elements, were contransfected into the human fibrosarcoma line HTI080 using LipofectAMINE™ LTX Reagent (Invitrogen) according to manufacturer's directions. Transfected cells were allowed to recover for 24 h. The culture medium was then replaced with fresh medium containing various concentrations of DL-Desthiobiotin, and the transfected cells cultured for an additional 24 h. The cultures were subsequently washed with PBS and exposed to 100 microlit cell lysis buffer/25 cm^2 culture area and gently shaken at room temperature for 30 min. The culture flasks containing the cell lysate were then immediately placed at −80 °C. Determination of reporter activity: The activity of the reporter gene, firefly luciferase, was determined according to the manufacturer's instructions (Dual-Luciferase® Reporter Assay System, Promega). Briefly, the activity of the reporter gene is determined relative to that of a control vector encoding a second luciferase gene, that from Renilla reniformis. […]
In general terms: A reporter such as luciferase makes a cellular process visible.

A further assay relates to Fibrillin-1 mRNA. Description: Fibrillin-1 gene expression by quantitative RT-PCR in fibroblasts. The format is cell-based. The following applies: 0.001% DL-Desthiobiotin, 48 h, normal human dermal fibroblasts, QPCR, compared to solvent control, p<0.05. The protocol: Cell Treatment: Normal human dermal fibroblasts were plated at 10^6 cells/100 mm tissue culture plates in 10 mls of standard growth medium and incubated at 37° C. and 10% CO2. Approximately 24 hours later, cells were dosed with test actives and solvent controls diluted in fresh growth medium and incubated for 48 hours at 37° C. Following 48-hour incubation, cell medium was removed, and 1 ml of TRIzol® reagent was added to lyse the cells in each plate. Cells from each plate were scraped, passed several times through a pipette, and collected into 1.5 ml centrifuge tubes. The cell lysates were incubated for 5 minutes at 15 to 30° C. to permit the complete dissociation of nucleoprotein complexes, and then stored at −80° C. for RNA isolation. RNA Isolation and RT PCR: RNA was isolated using standard procedures and was dissolved in RNase-free water and stored at −80° C. The concentration of total RNA was determined by using Agilent 2100 Bioanalyzer. […] Reverse Transcriptase (RT) reactions were conducted following the manufacturer's instructions provided by Applied Biosystems, Calif. After the RT step, the reactions were stored at −20° C. for QPCR analysis. QPCR was conducted in a total volume of 20 μl. Applied Biosystems (AB) Universal PCR master mix was used. […]

For `CC1NC(=O)NC1CCCCCC(=O)O` (racemic) [DL-Desthiobiotin], the “increase in expression of the reporter gene” value in assay [1] was determined as 90%. Besides, the “increase in Fibrillin-1 gene expression” value in the assay on Fibrillin-1 mRNA was 47.55%.
